The record followed here is ChEMBL document CHEMBL3044668, “Synthesis of (substituted benzamidostyryl) lH-benzimidazoles and their screening for anti-inflammatory activity” (Med Chem Res, 2012).

One may read the inhibition in vivo as the share of the control response that was lost under treatment.

For data set [1], the system named is Rattus norvegicus. The data set can be described thus: Anti-inflammatory activity against Rattus norvegicus Wistar albino (rat) assessed as inhibition of carrageenan-induced paw edema at 20 mg/kg, ip measured 3 hr after carrageenan challenge by plethysmometer. It is filed as functional. Particulars: route intraperitoneal. For orientation: In the carrageenan paw model, swelling and tenderness develop within hours.

Data set [2] relates to Rattus norvegicus. The data set is described as follows: Anti-inflammatory activity against Rattus norvegicus Wistar albino (rat) assessed as inhibition of carrageenan-induced paw edema at 20 mg/kg, ip measured 4 hr after carrageenan challenge by plethysmometer. Particulars: route intraperitoneal. It is filed as functional.
The subject of data set [3] is Rattus norvegicus. The data set is described as follows: Anti-inflammatory activity against Rattus norvegicus Wistar albino (rat) assessed as inhibition of carrageenan-induced paw edema at 10 mg/kg, ip measured 4 hr after carrageenan challenge by plethysmometer. It is filed as functional. Particulars: route intraperitoneal.
Data set [4] deals with Rattus norvegicus. The data set is described as follows: Anti-inflammatory activity against Rattus norvegicus Wistar albino (rat) assessed as inhibition of carrageenan-induced paw edema at 10 mg/kg, ip measured 3 hr after carrageenan challenge by plethysmometer. It is filed as functional. To be noted: route intraperitoneal.
The subject of data set [5] is Rattus norvegicus. The data set is described as follows: Gastrointestinal toxicity in Rattus norvegicus Wistar (rat) assessed as ulcer index at 20 mg/kg, po measured after 17 hr. To be noted: in vivo. Also noted: dose 20 mg/kg, route oral. The data set is classed as organism-based.
Data set [6] concerns Rattus norvegicus. The data set can be described thus: Gastrointestinal toxicity in Rattus norvegicus Wistar (rat) assessed as ulcer index at 30 mg/kg, po measured after 17 hr. Also noted: dose 30 mg/kg, route oral. It is filed as organism-based. To be noted: in vivo.

`O=C(N/C(=C/c1ccc(O)cc1)c1nc2ccccc2[nH]1)c1ccccc1`: the inhibition in vivo at 20 mg/kg in the data set on Rattus norvegicus [1] was determined as 27.3%; in the data set with Rattus norvegicus [2], 47.4%.
As to `Cc1ccc2nc(/C(=C\c3ccccc3)NC(=O)c3ccccc3)[nH]c2c1`, the inhibition in vivo at 20 mg/kg in the data set on Rattus norvegicus [1] was found to be 27.3%; in the data set on Rattus norvegicus [2], 46.1%.
The like results for `O=C(N/C(=C/c1ccccc1Cl)c1nc2ccccc2[nH]1)c1ccccc1` were, in that order, 30.3% and 43.6%.
`COc1ccc(/C=C(/NC(=O)c2ccccc2)c2nc3ccc(C)cc3[nH]2)cc1`: the inhibition in vivo at 20 mg/kg stood at 30.3% in the data set on Rattus norvegicus [1] and 53.8% in the data set with Rattus norvegicus [2].
For the compound `COc1ccc2c(c1)c(CC(=O)O)c(C)n2C(=O)c1ccc(Cl)cc1` [INDOMETHACIN], the inhibition in vivo at 10 mg/kg with Rattus norvegicus [3] is 77.2%; in the data set on Rattus norvegicus [4], 48.5%. The UI in the data set on Rattus norvegicus [5] is listed as 4.5.
Consider `CN(C)c1ccc(/C=C(/NC(=O)c2ccccc2)c2nc3ccccc3[nH]2)cc1`, for which the inhibition in vivo at 20 mg/kg was found to be 18.2% with Rattus norvegicus [1] and 34.6% in the data set with Rattus norvegicus [2].
As to `O=C(N/C(=C/c1ccccc1)c1nc2ccc([N+](=O)[O-])cc2[nH]1)c1ccccc1`, the values for the inhibition in vivo at 20 mg/kg in the data set with Rattus norvegicus [1] and with Rattus norvegicus [2] were 33.3% and 50%, respectively.
The matching figures for `Cc1ccc2nc(/C(=C\c3ccccc3Cl)NC(=O)c3ccccc3)[nH]c2c1`: 36.4% and 50%.
With `O=C(N/C(=C/c1ccccc1)c1nc2ccccc2[nH]1)c1ccccc1`, the inhibition in vivo at 20 mg/kg in the data set with Rattus norvegicus [1] turned out to be 39.4%; in the data set with Rattus norvegicus [2] it was 46.1%.
`COc1ccc(/C=C(/NC(=O)c2ccccc2)c2nc3ccccc3[nH]2)cc1`: the inhibition in vivo at 20 mg/kg was found to be 39.4% with Rattus norvegicus [1] and 35.9% in the data set with Rattus norvegicus [2].
As to `Cc1ccc(/C=C(/NC(=O)c2ccccc2)c2nc3ccccc3[nH]2)cc1`, the inhibition in vivo at 20 mg/kg with Rattus norvegicus [1] turned out to be 39.4%; in the data set with Rattus norvegicus [2] it was 47.4%. Besides, in the data set with Rattus norvegicus [6], the UI is listed as 1.
In the case of `O=C(N/C(=C/c1ccccc1Cl)c1nc2ccc([N+](=O)[O-])cc2[nH]1)c1ccccc1`, the inhibition in vivo at 20 mg/kg stood at 42.4% in the data set on Rattus norvegicus [1] and 59% in the data set with Rattus norvegicus [2]. For the same compound, the UI with Rattus norvegicus [6] stood at 0.75.
Take `COc1ccc(/C=C(/NC(=O)c2ccccc2)c2nc3ccc([N+](=O)[O-])cc3[nH]2)cc1`: the results for the inhibition in vivo at 20 mg/kg in the data set with Rattus norvegicus [1] and in the data set with Rattus norvegicus [2] were 24.2% and 51.3%, respectively. Besides, the UI with Rattus norvegicus [6] was determined as 1.41.
